34 molecules from patent US20080318958A1, “New utilities of tricyclic compounds” (priority 2001, published 2008) can be followed below.

Data set [1] has as its system promoter region of the gene encoding human apoAI. Briefly: Activity to enhance the expression of human apoAI: apoAI promoter-firefly luciferase reporter in stably transfected HepG2 cells. The class given is cell-based. Conditions: concentration that intensified the luciferase activity twice compared to DMSO control, 24 hours incubation with compound, read-out: MED (minimal effective dose). The procedure: The promoter region of the gene encoding human apoAI was isolated, and ligated upstream the structure gene of firefly luciferase to construct a reporter plasmid. The reporter plasmid and a marker plasmid conferring the neomycin resistance were co-infected to cell lines derived from human hepatoma, HepG2 cells, and the cell lines were incubated in a selection medium comprising DMEM medium containing 10% fetal calf serum supplemented with G418 (Final concentration: 0.7 mg/mL, Gibco) to give established strains that stably expressed the reporter molecule. The strains were seeded to a 96-well culture plates at a density of 50,000 cells per well, and incubated for 48 hours at 37° C. under an atmosphere of 5% carbon dioxide. Then, a solution of the compounds according to the invention in DMSO was added to the wells at final concentrations of 0 to 10 μg/mL. After further incubation for 24 hours, the cells were added with a luciferase assay reagent (Piccagene LT 7.5 registered trade mark, Toyo Ink, KK), and the luciferase activity was determined using a luminometer (MicroBeta™ TRILUX, 1 sec/well, Wallac). The concentration of the compounds, which intensified the luciferase activity twice compared to that of control (DMSO without any compound of the invention added) was set as the minimal effective dose (MED).
For orientation: A reporter such as luciferase makes a cellular process visible.

Each structure is given as a SMILES string.

With `c1ccc(-c2ccc(-c3ccncn3)cc2)cc1` [Compound I-1], the EC (2-fold luciferase activity) in data set [1] was 0.63 µM.

In the case of `c1ccc(-c2cnc(-c3ccccc3)nc2)cc1` [Compound I-2], the EC (2-fold luciferase activity) in data set [1] was 0.2 µM. On to `c1ccc(-c2ccnc(-c3ccccc3)n2)cc1` [Compound I-4], for which the melting point (commonly the temperature, or range, at which the solid turns liquid) fell in the range of 66 to 69 °C. `c1ccc(-c2cc(-c3ccccc3)ncn2)cc1` [Compound I-5] yielded a melting point of 91 to 92 °C. In turn, `c1ccc(-c2cncc(-c3ccccc3)n2)cc1` [Compound I-6] had a melting point of 88.5 to 90 °C. Moreover, the EC (2-fold luciferase activity) in data set [1] was 3.11 µM. On the same counts, the results for `c1ccc(-c2ccc(-c3ccccc3)nn2)cc1` [Compound I-7] are 218 to 220 °C and 0.04 µM.

In the case of `c1ccc(-c2ccc(-c3ncccn3)cc2)cc1` [Compound I-8], the melting point was in the range of 112 to 113 °C. Moreover, the EC (2-fold luciferase activity) in data set [1] is 0.09 µM.

`c1ccc(-c2cccc(-c3ncccn3)c2)cc1` [Compound I-9] had a melting point of 46 to 48 °C. For `c1ccc(-c2ccc(-c3cnccn3)cc2)cc1` [Compound I-10], the melting point fell in the range of 177 to 178 °C. Moreover, the EC (2-fold luciferase activity) in data set [1] worked out at 0.71 µM. On the same counts, the results for `c1ccc(-c2ccc(-c3ccccc3)nc2)cc1` [Compound I-11] are 176 to 177 °C and 0.21 µM.

Turning to `c1ccc(-c2nnc(-c3ccccc3)c3ccccc23)cc1` [Compound I-12], the melting point was 203 to 205 °C. `COc1ccc(-c2nnc(-c3ccccc3)c3ccccc23)cc1` [Compound I-13]: the melting point lay in the range of 175 to 177 °C. As for `c1ccc(-c2ccc(-c3cnc4ccccc4n3)cc2)cc1` [Compound I-16], the EC (2-fold luciferase activity) in data set [1] was 0.1 µM. With `c1ccc(-c2ccc(-c3ccc4ccccc4n3)cc2)cc1` [Compound I-17], the EC (2-fold luciferase activity) in data set [1] came out at 0.33 µM. On the same count and under the same terms, the value for `Cc1cc(-c2ccc(-c3ccccc3)cc2)nc2ccccc12` [Compound I-18] was 1.1 µM.

As to `c1ccc(-c2ccc(-c3ccccn3)cc2)cc1` [Compound I-20], the EC (2-fold luciferase activity) in data set [1] is 0.23 µM. The same measure, in the same setting: the value for `Cc1cccc(-c2ccc(-c3ccccc3)cc2)n1` [Compound I-21] was 2.3 µM; that for `COc1cccc(-c2ccc(-c3ccccc3)cc2)n1` [Compound I-22] was 0.84 µM; that for `CCc1cnc(-c2ccc(-c3ccccc3)cc2)nc1` [Compound I-23] was 0.27 µM. As for `COc1cc(OC)nc(-c2ccc(-c3ccccc3)cc2)n1` [Compound I-24], the EC (2-fold luciferase activity) in data set [1] was 2.2 µM. On the same count and under the same terms, the value for `c1ccc(-c2ccc(-c3cccnn3)cc2)cc1` [Compound I-25] was 0.29 µM; that for `Clc1ccc(-c2ccc(-c3ccccc3)cc2)nn1` [Compound I-26] was 0.27 µM. On the same count and under the same terms, the same measure for `COc1ccc(-c2ccc(-c3ccccc3)cc2)nn1` [Compound I-27, 3-(4-Biphenyl)-6-methoxypyridazin]: 0.06 µM; for `c1ccc(-c2ccc(-c3ccc(-c4ccccc4)nn3)cc2)cc1` [Compound I-28]: 2.5 µM; for `COc1nc(OC)nc(-c2ccc(-c3ccccc3)cc2)n1` [Compound I-29]: 2.5 µM. Regarding `COc1cccc(-c2cnc(-c3cccc(OC)c3)cn2)c1` [Compound I-35], the EC (2-fold luciferase activity) in data set [1] was 0.29 µM. Turning to `c1ccc(-c2ccc(-c3ccsc3)cc2)nc1` [Compound I-36, 2-[4-(3-Thienyl)phenyl]pyridine], in data set [1], the EC (2-fold luciferase activity) came to 1.3 µM. Still for that read-out and setting: the same measure for `c1ccc(-c2ccc(-c3ccoc3)cc2)nc1` [Compound I-37]: 4.4 µM; for `COc1ccc(-c2ccc(-c3ccccn3)cc2)cc1` [Compound I-40]: 0.16 µM. Still for that read-out and setting: the value for `Cc1ccc(-c2ccc(-c3ccccn3)cc2)cc1` [Compound I-42] was 0.09 µM; that for `CC(=O)Nc1ccc(-c2ccc(-c3ccccn3)cc2)cc1` [Compound I-43] was 0.3 µM; that for `C#CC1COc2ccc(-c3c(OC)cc(-c4ccc(O)cc4)c(OC)c3O)cc2O1` (stereo not drawn) [Compound I-44] was 0.6 µM. Take `COc1cc(-c2ccc(O)cc2)c(OC)c(O)c1-c1ccc2c(c1)OC(O)CO2` (stereo not drawn) [Compound I-45]: the EC (2-fold luciferase activity) in data set [1] amounted to 2.4 µM. Same read-out and setting: the value for `COc1cc(-c2ccc(O)cc2)c(OC)c(O)c1-c1ccc(OC/C=N/C2CCN(C)CC2)c(O)c1` [Compound I-48] was 1.6 µM.
